Active and inactive are the calls of the source.
Tests used:
[1] = HEp-2 cell cytotoxicity, dose response, cytotoxicity control for RSV inhibitor project, HTS (AID 2410); type: functional; settings: human respiratory syncytial virus
[2] = target: Heat shock protein HSP 90-alpha (Homo sapiens, UniProt P07900); type: functional, organism-based
[3] = target: T1, Corticotropin-releasing factor receptor 2/Corticotropin-releasing factor-binding protein (Homo sapiens, UniProt P24387+Q13324); assay: activators of CRF receptor 2 with binding protein – uHTS hits, confirmation (AID 602473); type: functional; settings: read-out: EC50_Mean
T1 sequence (Q13324 whole entry): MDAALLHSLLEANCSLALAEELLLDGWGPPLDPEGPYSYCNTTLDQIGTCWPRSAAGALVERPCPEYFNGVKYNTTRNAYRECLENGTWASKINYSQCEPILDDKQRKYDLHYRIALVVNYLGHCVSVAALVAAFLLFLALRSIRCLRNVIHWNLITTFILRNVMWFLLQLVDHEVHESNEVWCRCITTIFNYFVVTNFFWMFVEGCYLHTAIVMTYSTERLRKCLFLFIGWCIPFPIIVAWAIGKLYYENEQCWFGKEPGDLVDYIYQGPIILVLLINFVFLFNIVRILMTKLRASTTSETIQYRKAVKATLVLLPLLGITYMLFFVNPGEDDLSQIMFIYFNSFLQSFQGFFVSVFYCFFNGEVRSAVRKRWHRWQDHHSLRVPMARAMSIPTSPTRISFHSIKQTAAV
T1 sequence (P24387 whole entry): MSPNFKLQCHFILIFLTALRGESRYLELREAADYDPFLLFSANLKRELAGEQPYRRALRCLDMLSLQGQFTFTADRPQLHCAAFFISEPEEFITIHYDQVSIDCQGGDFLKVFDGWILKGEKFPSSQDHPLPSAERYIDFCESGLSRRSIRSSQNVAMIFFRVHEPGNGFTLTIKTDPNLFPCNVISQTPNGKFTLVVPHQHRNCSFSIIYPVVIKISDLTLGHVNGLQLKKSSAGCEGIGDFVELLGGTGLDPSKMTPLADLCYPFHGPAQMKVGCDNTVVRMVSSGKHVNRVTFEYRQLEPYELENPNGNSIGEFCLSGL

[4] = CRF-BP/CRF-R2 complex antagonists, dose response, cell-based, uHTS hits, 384-well (AID 651639); type: functional, Homo sapiens; settings: read-out: IC50_Mean
[5] = target: T1, Corticotropin-releasing factor receptor 2/Corticotropin-releasing factor-binding protein; assay: Dose Response confirmation of uHTS hits for small molecule antagonists of the CRF-binding protein and CRF-R2 receptor complex.; type: functional; settings: read-out: IC50_Mean
[6] = system: HEK293; assay: inhibitors of LMP1-driven NF-kB reporter, dose response, cell-based, HEK293, luciferase, cherry-pick (AID 588343); type: functional; settings: Homo sapiens
[7] = target: T2, Heat shock factor protein 1 (Mus musculus, UniProt P38532); assay: inhibition of MG132-induced HSE-luciferase signal, confirmation, cell-based, NIH3T3, luminescence, dose retest (AID 2382); type: functional;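 note: NIH3T3 fibroblasts with HSF1-driven luciferase reporter stressed by proteasome inhibitor MG132; luminescence from HSF1-driven luciferase expression after 8 hours of MG132 stress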
T2 sequence (P38532 whole entry): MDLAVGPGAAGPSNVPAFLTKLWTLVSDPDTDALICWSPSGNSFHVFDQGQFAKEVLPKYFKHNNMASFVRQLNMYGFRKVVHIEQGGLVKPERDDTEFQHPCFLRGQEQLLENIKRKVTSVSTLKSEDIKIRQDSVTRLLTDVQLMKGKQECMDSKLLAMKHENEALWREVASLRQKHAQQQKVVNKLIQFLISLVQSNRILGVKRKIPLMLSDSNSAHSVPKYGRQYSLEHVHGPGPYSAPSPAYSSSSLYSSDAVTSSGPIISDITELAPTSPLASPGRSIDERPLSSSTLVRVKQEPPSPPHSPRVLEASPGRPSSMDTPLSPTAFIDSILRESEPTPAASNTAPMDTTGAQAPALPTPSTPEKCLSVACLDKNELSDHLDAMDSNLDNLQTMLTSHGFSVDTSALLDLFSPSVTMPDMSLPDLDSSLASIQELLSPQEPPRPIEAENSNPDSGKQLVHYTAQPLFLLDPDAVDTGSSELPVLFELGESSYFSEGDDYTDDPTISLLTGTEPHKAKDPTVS

[8] = inhibitors of SNCA 5'UTR-driven reporter translation, confirmation, H4 neuroglioma cells, luminescence (AID 1988); type: functional, cell-based
[9] = inhibitors of firefly luciferase expression or activity, dose response, H4 neuroglioma cells, luminescence (AID 1990); type: functional, cell-based
[10] = Luminescence Cell-Based Dose Response HTS to Identify Inhibitors of 5'UTR Stem-Loop Driven Prion Protein mRNA Translation in H4 Neuroglioblastoma Cells. [Related pubchem assays: 1827 (Project Summary), 1813 (Primary HTS)]; type: functional
[11] = target: T3, Caspase-3 (Homo sapiens, UniProt P42574); type: functional;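 note: Dose-response selectivity test against caspase-3 for candidate inhibitors of sentrin-specific proteases (SENPs)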
T3 sequence (P42574 whole entry): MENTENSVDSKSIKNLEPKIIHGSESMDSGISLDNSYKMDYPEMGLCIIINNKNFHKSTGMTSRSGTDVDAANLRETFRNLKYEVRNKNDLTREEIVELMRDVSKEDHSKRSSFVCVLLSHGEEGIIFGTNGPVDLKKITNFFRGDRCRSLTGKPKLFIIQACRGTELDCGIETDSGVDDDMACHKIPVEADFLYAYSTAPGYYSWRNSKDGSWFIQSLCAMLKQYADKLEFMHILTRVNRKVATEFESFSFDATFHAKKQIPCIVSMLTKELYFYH

[12] = target: T4, Sentrin-specific protease 6 (Homo sapiens, UniProt Q9GZR1); type: functional;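 note: Luminescence-based dose-response confirmatory assay of SENP6 inhibition, following up an ultra-high-throughput screen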
T4 sequence (Q9GZR1 whole entry): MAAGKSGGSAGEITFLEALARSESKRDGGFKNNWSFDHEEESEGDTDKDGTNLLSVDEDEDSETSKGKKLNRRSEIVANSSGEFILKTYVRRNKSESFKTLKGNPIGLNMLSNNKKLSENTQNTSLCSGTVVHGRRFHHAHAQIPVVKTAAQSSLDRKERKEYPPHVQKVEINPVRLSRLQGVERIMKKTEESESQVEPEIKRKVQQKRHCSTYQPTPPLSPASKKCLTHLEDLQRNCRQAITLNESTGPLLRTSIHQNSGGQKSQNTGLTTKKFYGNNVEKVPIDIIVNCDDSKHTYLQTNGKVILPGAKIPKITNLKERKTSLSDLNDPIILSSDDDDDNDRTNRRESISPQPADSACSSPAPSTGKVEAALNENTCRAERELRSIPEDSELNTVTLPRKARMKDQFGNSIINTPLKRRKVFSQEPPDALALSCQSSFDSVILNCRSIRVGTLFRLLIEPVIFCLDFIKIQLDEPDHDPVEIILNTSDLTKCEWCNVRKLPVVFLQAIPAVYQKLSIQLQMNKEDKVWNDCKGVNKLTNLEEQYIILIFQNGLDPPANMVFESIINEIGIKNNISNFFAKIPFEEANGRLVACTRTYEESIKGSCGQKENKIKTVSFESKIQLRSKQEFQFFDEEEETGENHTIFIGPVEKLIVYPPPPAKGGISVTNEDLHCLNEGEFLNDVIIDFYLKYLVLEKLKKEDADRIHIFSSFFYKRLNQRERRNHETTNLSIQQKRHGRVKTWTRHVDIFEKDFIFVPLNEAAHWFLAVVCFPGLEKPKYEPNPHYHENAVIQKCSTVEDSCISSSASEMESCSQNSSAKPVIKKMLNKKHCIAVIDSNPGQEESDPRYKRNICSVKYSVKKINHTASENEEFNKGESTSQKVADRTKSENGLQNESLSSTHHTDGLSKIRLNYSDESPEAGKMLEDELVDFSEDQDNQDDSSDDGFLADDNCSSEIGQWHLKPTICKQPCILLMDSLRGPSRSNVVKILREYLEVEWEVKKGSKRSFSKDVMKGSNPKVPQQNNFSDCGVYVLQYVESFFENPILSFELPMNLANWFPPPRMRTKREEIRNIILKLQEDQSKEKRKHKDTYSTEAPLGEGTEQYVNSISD

[13] = target: T5, Sentrin-specific protease 8 (Homo sapiens, UniProt Q96LD8); type: functional;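 note: luminescence read-out of SENP8 inhibition, dose-response confirmation following an ultra-high-throughput screen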
T5 sequence (Q96LD8 whole entry): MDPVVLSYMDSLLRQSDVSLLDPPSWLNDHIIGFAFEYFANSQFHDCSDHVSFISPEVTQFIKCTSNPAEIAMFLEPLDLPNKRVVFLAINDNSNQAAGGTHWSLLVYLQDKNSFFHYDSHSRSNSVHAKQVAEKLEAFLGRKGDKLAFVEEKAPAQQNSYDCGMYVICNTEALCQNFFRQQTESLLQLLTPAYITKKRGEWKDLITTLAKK

[14] = target: T6, Sentrin-specific protease 7 (Homo sapiens, UniProt Q9BQF6); type: functional;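 note: Luminescence-based dose-response confirmation of ultra-high-throughput screening hits, measuring inhibition of SENP7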
T6 sequence (Q9BQF6 whole entry): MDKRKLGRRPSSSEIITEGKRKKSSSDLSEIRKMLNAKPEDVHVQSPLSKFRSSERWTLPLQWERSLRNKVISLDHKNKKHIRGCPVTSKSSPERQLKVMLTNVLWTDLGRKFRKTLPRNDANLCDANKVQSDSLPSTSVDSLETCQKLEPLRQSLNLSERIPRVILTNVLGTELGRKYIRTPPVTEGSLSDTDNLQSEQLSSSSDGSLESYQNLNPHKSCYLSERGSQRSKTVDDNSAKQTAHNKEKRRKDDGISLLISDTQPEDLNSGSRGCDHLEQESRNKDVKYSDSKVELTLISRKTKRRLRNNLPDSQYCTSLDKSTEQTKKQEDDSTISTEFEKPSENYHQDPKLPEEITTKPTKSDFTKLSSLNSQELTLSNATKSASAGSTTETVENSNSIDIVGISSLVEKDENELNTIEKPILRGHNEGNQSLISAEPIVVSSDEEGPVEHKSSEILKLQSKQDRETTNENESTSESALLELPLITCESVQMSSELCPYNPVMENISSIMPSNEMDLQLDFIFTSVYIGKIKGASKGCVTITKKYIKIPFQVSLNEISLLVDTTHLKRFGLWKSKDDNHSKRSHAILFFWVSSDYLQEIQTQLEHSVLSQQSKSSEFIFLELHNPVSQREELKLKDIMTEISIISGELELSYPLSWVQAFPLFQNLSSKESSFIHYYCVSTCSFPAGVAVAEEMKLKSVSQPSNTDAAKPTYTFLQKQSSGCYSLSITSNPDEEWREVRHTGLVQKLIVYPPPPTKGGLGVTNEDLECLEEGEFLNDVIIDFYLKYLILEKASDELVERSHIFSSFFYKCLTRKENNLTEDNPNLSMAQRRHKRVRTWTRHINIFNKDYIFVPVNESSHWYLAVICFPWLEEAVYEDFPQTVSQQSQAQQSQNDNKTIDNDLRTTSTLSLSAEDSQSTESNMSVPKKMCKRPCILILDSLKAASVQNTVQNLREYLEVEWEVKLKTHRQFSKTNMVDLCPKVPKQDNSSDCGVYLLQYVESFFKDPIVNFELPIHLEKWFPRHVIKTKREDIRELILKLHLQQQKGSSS

[15] = cells; type: functional, cell-based
[16] = target: T7, Adenosylmethionine-8-amino-7-oxononanoate aminotransferase (Mycobacterium tuberculosis, UniProt P9WQ81); assay: Mycobacterium tuberculosis BioA enzyme inhibitor Measured in Biochemical System Using Plate Reader - 2163-02_Inhibitor_Dose_CherryPick_Activity.; type: functional, Mycobacterium tuberculosis UT205
T7 sequence (P9WQ81 whole entry): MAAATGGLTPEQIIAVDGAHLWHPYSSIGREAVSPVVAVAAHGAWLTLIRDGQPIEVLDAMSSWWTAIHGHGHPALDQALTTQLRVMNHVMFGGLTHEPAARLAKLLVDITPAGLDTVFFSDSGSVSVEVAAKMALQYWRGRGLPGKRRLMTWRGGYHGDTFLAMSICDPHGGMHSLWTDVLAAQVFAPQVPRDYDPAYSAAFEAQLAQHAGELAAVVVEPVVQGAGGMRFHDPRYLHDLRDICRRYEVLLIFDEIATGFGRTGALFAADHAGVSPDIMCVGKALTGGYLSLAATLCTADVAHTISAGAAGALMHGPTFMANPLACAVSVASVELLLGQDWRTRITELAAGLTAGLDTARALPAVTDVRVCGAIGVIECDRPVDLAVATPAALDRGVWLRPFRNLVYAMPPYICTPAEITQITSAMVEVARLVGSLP

Structure (SMILES): CCS(=O)(=O)Nc1cccc(-c2cc(-c3ccccc3)c3cc(C)ccc3n2)c1
- CC50 [1]: 12 µM (active)
- AC50 [2]: 4.3 µM (active)

Structure (SMILES): CC(NC(=O)CC(c1ccccc1)c1cc(Cl)ccc1O)c1ccccc1 (stereo not drawn)
- EC50 [3]: > 53 µM (inactive)
- IC50 [4]: > 20 µM (inactive)
- IC50 [5]: 13.1 µM (active)

Structure (SMILES): COc1ccc(NC(=O)CN(C)C(=O)C2=COCCO2)cc1
- EC50 [3]: > 53 µM (inactive)
- IC50 [4]: > 20 µM (inactive)
- IC50 [5]: < 0.368 µM (active)

Structure (SMILES): CC1CCc2nc(N)c(C#N)c(-c3cccnc3)c2C1 (stereo not drawn)
- AC50 [6]: 9.95 µM (active)
- EC50 [7]: 1.83 µM (active)
- EC50 [8]: > 120 µM (not active)
- EC50 [9]: 21.9 µM (active)
- EC50 [10]: 7.72 µM (active)

Structure (SMILES): CC1=NN(C(N)=S)C(=O)C1N=Nc1ccccc1 (stereo not drawn)
- IC50 [11]: 3.7 µM (active)
- IC50 [12]: 21.6 µM (active)
- IC50 [13]: > 100 µM (inactive)
- IC50 [14]: 5.13 µM (active)

Structure (SMILES): CCOC(=O)c1sc(NC(=O)c2ccc(C)s2)cc1C
- IC50 [11]: 20.3 µM (active)
- IC50 [12]: > 100 µM (inactive)
- IC50 [13]: > 100 µM (inactive)
- IC50 [14]: 4.46 µM (active)

Structure (SMILES): COC(=O)C1CCN(C2CC(=O)N(c3cc(C)cc(C)c3)C2=O)CC1 (stereo not drawn)
- AC50 [2]: 7.09 µM (active)

Structure (SMILES): O=C(Nc1ncc2c(n1)CC(c1ccco1)CC2=O)c1ccccc1 (stereo not drawn)
- EC50 [15]: > 350 µM (not active)
- AC50 [16]: 0.657 µM (active)

Structure (SMILES): CCC(CO)Oc1cc(NC(=O)c2cccc(F)c2)c2ncn(C(C)C)c2c1 (stereo not drawn)
- AC50 [16]: 5 µM (active)

Structure (SMILES): Cn1ncc2cc3c(Nc4ccc(Cl)cc4)cccc3nc21
- AC50 [16]: 5.67 µM (active)

Structure (SMILES): O=C(N[C@H]1CC[C@@H](CCn2cc(-c3cccnc3)nn2)O[C@@H]1CO)c1ccccc1F
- AC50 [16]: 11.7 µM (active)

Structure (SMILES): O=C(O)CC/C(=N/Nc1ccc([N+](=O)[O-])cc1)C(=O)O
- AC50 [2]: 4.79 µM (active)
